Data set [1] concerns C. neoformans strains H99 and may1Δ. In words: Yeast culture activity assay. In kind it is cell-based, Cryptococcus neoformans. The following applies: for terminal culture density of yeast: 48 h, 0.1, 1.0, 10 or 50 μM compound.
The subject of a further data set is HepG2. As to the kind of experiment: Cytotoxicity, CellTiter-Glo 2.0 Cell Viability Assay. The data set is classed as cell-based, human. The conditions noted are these: HepG2 cell line; comparators darunavir, amprenavir, indinavir (ref 40). (ATP-based viability assays read luminescence as a measure of living cells.)
The subject of another data set is HIV-1 Pr wild-type. The conditions noted are these: cited from earlier work.
Data set [2] has as its target HIV-1 Pr drug resistance-associated mutants. The conditions noted are these: cited from earlier work.
The next data set has as its target T1, May1 (Cryptococcus neoformans, UniProt J9VS02).
T1 sequence (J9VS02 80-434 limits assumed): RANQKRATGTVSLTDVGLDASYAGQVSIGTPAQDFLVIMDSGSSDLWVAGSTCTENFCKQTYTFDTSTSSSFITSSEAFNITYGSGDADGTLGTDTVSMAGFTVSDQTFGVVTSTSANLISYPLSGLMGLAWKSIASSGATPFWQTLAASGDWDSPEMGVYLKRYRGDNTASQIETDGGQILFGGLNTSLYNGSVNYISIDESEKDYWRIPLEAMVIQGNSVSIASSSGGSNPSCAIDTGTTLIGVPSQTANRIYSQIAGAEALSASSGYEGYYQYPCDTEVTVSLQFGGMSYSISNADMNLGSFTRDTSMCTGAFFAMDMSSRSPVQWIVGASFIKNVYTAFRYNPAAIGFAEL
As to the kind of experiment: May1 Ki determination, fluorometric assay with IQ-2 substrate. The data set is classed as biochemical.

Where a SMILES comes first, the peptide text is derived from it. [ ]: non-standard residue; d: D form. The star is where a group is joined. Sta = CC(C)C[C@H](N)[C@@H](O)CC(=O)O; Isovaleryl = CC(C)CC(=O)*

Turning to `CC(C)[C@H](NC(=O)[C@H](CCC(=O)O)NC(=O)C[C@H](O)[C@H](Cc1ccccc1)NC(=O)OCc1ccccc1)C(N)=O` [Compound 3a, (S)-5-(((S)-1-amino-3-methyl-1-oxobutan-2-yl)amino)-4-((3S,4S)-4-(((benzyloxy)carbonyl)amino)-3-hydroxy-5-phenylpentanamido)-5-oxopentanoic acid], in data set [1] (H99, YNB minimal medium), the “terminal culture density of yeast” value is “dose-dependent reductions in terminal culture density”.
As to `CCCC[C@H](NC(=O)[C@H](CCC(=O)O)NC(=O)C[C@H](O)[C@H](Cc1ccccc1)NC(=O)OCc1ccccc1)C(N)=O` [Compound 4a, (S)-5-(((S)-1-amino-1-oxohexan-2-yl)amino)-4-((3S,4S)-4-(((benzyloxy)carbonyl)amino)-3-hydroxy-5-phenylpentanamido)-5-oxopentanoic acid], in data set [1] (H99, YNB minimal medium), the “terminal culture density of yeast” value is recorded as “dose-dependent reductions in terminal culture density”.
For `NC(=O)[C@H](CCc1ccccc1)NC(=O)[C@H](CCC(=O)O)NC(=O)C[C@H](O)[C@H](Cc1ccccc1)NC(=O)OCc1ccccc1` [Compound 13a, (S)-5-(((S)-1-amino-1-oxo-4-phenylbutan-2-yl)amino)-4-((3S,4S)-4-(((benzyloxy)carbonyl)amino)-3-hydroxy-5-phenylpentanamido)-5-oxopentanoic acid], the “cytotoxicity compared with clinically used protease inhibitors” value with HepG2 is “on par with or lower than that of clinically used protease inhibitors”. Further, in data set [1] (H99, YNB minimal medium, 48 h, 50 μM), the “terminal culture density of yeast at 50 μM” value is given as “nearly phenocopying the may1Δ mutant”. Moreover, in data set [1] (H99, YNB minimal medium), the “terminal culture density of yeast” value is reported as “dose-dependent reductions in terminal culture density”. For the same compound, the “culture density during logarithmic phase growth” value in data set [1] (H99, unbuffered YNB, 50 μM) is recorded as “achieved similar densities to 1b- or DMSO-treated controls during the logarithmic phase growth”. Further, in data set [1] (YNB with 50 mM MES, pH 6.5, 50 μM), the “saturation density phenotype in buffered medium” value is given as “eliminated the saturation density phenotype”. Also, in data set [1] (may1Δ strain, unbuffered YNB, 50 μM), the “culture density of may1Δ yeast” value was “did not further reduce culture densities during either the logarithmic or the stationary phase”. The “inhibition of wild-type HIV-1 Pr (in words)” value in the data set on HIV-1 Pr wild-type is listed as “potent, subnanomolar inhibitor”. For the same compound, the “Ki for three drug resistance-associated HIV-1 Pr mutants” value in data set [2] is 0.024 to 0.32 nM.
For orientation: Ki means the equilibrium dissociation constant of an inhibitor or competing ligand from its target. Low values mean tighter binding, high ones weaker binding. In turn, `CC(C)CC(=O)N[C@H](C(=O)N[C@H](C(=O)N[C@@H](CC(C)C)[C@@H](O)CC(=O)N[C@@H](C)C(=O)N[C@@H](CC(C)C)[C@@H](O)CC(=O)O)C(C)C)C(C)C` [PepA, pepstatin A] (Isovaleryl-VV[Sta]A[Sta]-OH) had an inhibition constant (Ki) at May1 of 1.3 ± 0.1 nM.
Turning to `CC(=O)N[C@H](C(=O)N[C@H](C(=O)N[C@@H](CC(C)C)[C@@H](O)CC(=O)N[C@@H](C)C(=O)N[C@@H](CC(C)C)[C@@H](O)CC(=O)O)C(C)C)C(C)C` [acetyl pepstatin] (Ac-VV[Sta]A[Sta]-OH), at May1, the affinity corresponds to a Ki of 3.3 ± 0.1 nM.
